Measured values taken from patent US12215140B2, “Method of stabilizing protein contained in specimen and solution for stabilizing protein contained in specimen” (EIKEN KAGAKU KABUSHIKI KAISHA, priority 2018, dated 2025).
Values joined by “and” are separate entries in the source; they are usually repeats but may differ in a detail not shown here. Equal values may be shown once.

Molecular target: hemoglobin (Homo sapiens, UniProt P68871+P69905)
Experiment: Stability of hemoglobin in samples preserved at 37° C. in preservation solution containing no haptoglobin, Hb measured by latex agglutination method (Examples 8, 9 and Table 10)
Details: for Hb concentration / Recovery ratio with respect to Hb after 0 days: no phenylboronic acid, sugar 100 mmol/L; for recovery ratio of hemoglobin in the sample: sugar further added to phenylboronic acid 0.5 mmol/L, no haptoglobin, Feces 1, Feces 2, Feces 3
Protocol: Preservation solutions were prepared with the addition of 40 mmol/L HEPES (pH 6.8), 0.1% BSA, 0.1% NaN3, and 0 to 2.5 mmol/L phenylboronic acid. […] Samples obtained by adding hemoglobin-added fecal specimens to the preservation solutions so that the fecal concentration would be 0.5% were preserved at 37° C. for 0, 16, 38, and 62 hours. The fecal specimens were added with hemoglobin having an amount such that the hemoglobin concentration in the samples would be about 300 μg/L. Instead of the fecal specimens to which hemoglobin was added, samples containing no fecal specimens, in which hemoglobin was added to the preservation solutions so that the hemoglobin concentration in the samples would be 300 μg/L, were similarly preserved. The hemoglobin (Hb) concentrations (μg/L) in the preserved samples were measured by the latex agglutination method using the same measurement reagent and measurement device as in Example 1.
The concentration of phenylboronic acid in the preservation solutions of Example 8 was fixed to 0.5 mmol/L, preservation solutions to which sorbitol or sucrose was further added at 10 to 250 mmol/L or trehalose, glucose, fructose, or mannitol was further added at 50 to 100 mmol/L were prepared, and testing was conducted in the same manner as in Example 8. In addition, preservation solutions to which the phenylboronic acid was added but no sugar was added were prepared, preservation solutions to which the phenylboronic acid and sugar were not added were prepared for the comparative examples, and testing was conducted in the same manner.
For comparative examples, preservation solutions to which no arylboronic acid was added were prepared, and testing was conducted in the same manner.

hemoglobin, sequence (P69905 2-142): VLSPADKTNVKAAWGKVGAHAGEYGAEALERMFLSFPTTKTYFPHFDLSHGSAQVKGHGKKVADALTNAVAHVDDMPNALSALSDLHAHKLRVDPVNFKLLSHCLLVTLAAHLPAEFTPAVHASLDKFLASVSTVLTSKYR
hemoglobin, sequence (P68871 2-147): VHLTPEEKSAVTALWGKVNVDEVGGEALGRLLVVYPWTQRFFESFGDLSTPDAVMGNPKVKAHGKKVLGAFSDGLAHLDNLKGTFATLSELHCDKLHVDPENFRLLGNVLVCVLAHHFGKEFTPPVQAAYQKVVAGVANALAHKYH

SMILES | Hb concentration (Feces 1, 0 h at 37° C.) [µg/L] | Recovery ratio with respect to Hb after 0 days (Feces 1, 0 h at 37° C.) [%] | Hb concentration (Feces 1, 16 h at 37° C.) [µg/L] | Recovery ratio with respect to Hb after 0 days (Feces 1, 16 h at 37° C.) [%] | Hb concentration (Feces 1, 38 h at 37° C.) [µg/L] | Recovery ratio with respect to Hb after 0 days (Feces 1, 38 h at 37° C.) [%] | Hb concentration (Feces 1, 62 h at 37° C.) [µg/L] | Recovery ratio with respect to Hb after 0 days (Feces 1, 62 h at 37° C.) [%] | Hb concentration (Feces 2, 0 h at 37° C.) [µg/L] | Recovery ratio with respect to Hb after 0 days (Feces 2, 0 h at 37° C.) [%] | Hb concentration (Feces 2, 16 h at 37° C.) [µg/L] | Recovery ratio with respect to Hb after 0 days (Feces 2, 16 h at 37° C.) [%] | Hb concentration (Feces 2, 38 h at 37° C.) [µg/L] | Recovery ratio with respect to Hb after 0 days (Feces 2, 38 h at 37° C.) [%] | Hb concentration (Feces 2, 62 h at 37° C.) [µg/L] | Recovery ratio with respect to Hb after 0 days (Feces 2, 62 h at 37° C.) [%] | Hb concentration (No feces, 0 h at 37° C.) [µg/L] | Recovery ratio with respect to Hb after 0 days (No feces, 0 h at 37° C.) [%] | Hb concentration (No feces, 16 h at 37° C.) [µg/L] | Recovery ratio with respect to Hb after 0 days (No feces, 16 h at 37° C.) [%] | other results
O=C(CO)[C@@H](O)[C@H](O)[C@H](O)CO [Fructose, fructose] | 281 | 100 | 134 | 48 | 35 | 12 | 0 | 0 | 268 | 100 | 60 | 22 | 1 | 0 | 0 | 0 | 284 | 100 | 246 | 86 | Hb concentration (Feces 3, 0 h at 37° C.): 263 µg/L and 269 µg/L; Recovery ratio with respect to Hb after 0 days (Feces 3, 0 h at 37° C.): 100%; Hb concentration (Feces 3, 16 h at 37° C.): 51 µg/L and 57 µg/L; Recovery ratio with respect to Hb after 0 days (Feces 3, 16 h at 37° C.): 19% and 21%; Hb concentration (Feces 3, 38 h at 37° C.): 0 µg/L; Recovery ratio with respect to Hb after 0 days (Feces 3, 38 h at 37° C.): 0%; Hb concentration (Feces 3, 62 h at 37° C.): 0 µg/L; Recovery ratio with respect to Hb after 0 days (Feces 3, 62 h at 37° C.): 0%; Hb concentration (No feces, 38 h at 37° C.): 233 µg/L; Recovery ratio with respect to Hb after 0 days (No feces, 38 h at 37° C.): 82%; Hb concentration (No feces, 62 h at 37° C.): 230 µg/L; Recovery ratio with respect to Hb after 0 days (No feces, 62 h at 37° C.): 81%; recovery ratio of hemoglobin in the sample: further improved
OC[C@@H](O)[C@@H](O)[C@H](O)[C@H](O)CO [Mannitol, mannitol] | 276 | 100 | 131 | 48 | 29 | 10 | 1 | 0 | 266 | 100 | 55 | 21 | 1 | 0 | 0 | 0 | 281 | 100 | 254 | 91 | Hb concentration (No feces, 38 h at 37° C.): 237 µg/L; Recovery ratio with respect to Hb after 0 days (No feces, 38 h at 37° C.): 84%; Hb concentration (No feces, 62 h at 37° C.): 235 µg/L; Recovery ratio with respect to Hb after 0 days (No feces, 62 h at 37° C.): 84%; recovery ratio of hemoglobin in the sample: further improved
OC[C@@H](O)[C@@H](O)[C@H](O)[C@@H](O)CO [Sorbitol, sorbitol] | 290 | 100 | 146 | 50 | 39 | 13 | 1 | 0 | 275 | 100 | 61 | 22 | 0 | 0 | 0 | 0 | 300 | 100 | 263 | 88 | Hb concentration (Feces 3, 0 h at 37° C.): 277 µg/L; Recovery ratio with respect to Hb after 0 days (Feces 3, 0 h at 37° C.): 100%; Hb concentration (Feces 3, 16 h at 37° C.): 49 µg/L; Recovery ratio with respect to Hb after 0 days (Feces 3, 16 h at 37° C.): 18%; Hb concentration (Feces 3, 38 h at 37° C.): 1 µg/L; Recovery ratio with respect to Hb after 0 days (Feces 3, 38 h at 37° C.): 0%; Hb concentration (Feces 3, 62 h at 37° C.): 0 µg/L; Recovery ratio with respect to Hb after 0 days (Feces 3, 62 h at 37° C.): 0%; Hb concentration (No feces, 38 h at 37° C.): 245 µg/L; Recovery ratio with respect to Hb after 0 days (No feces, 38 h at 37° C.): 82%; Hb concentration (No feces, 62 h at 37° C.): 235 µg/L; Recovery ratio with respect to Hb after 0 days (No feces, 62 h at 37° C.): 79%; recovery ratio of hemoglobin in the sample: further improved
